These results are taken from patent publication US5658943A, “Phenylalanine derivatives as endothelin antagonists” (Warner-Lambert Company, priority 1995, dated 1997).

Where a SMILES comes first, the peptide text is derived from it. [ ]: non-standard residue; d: D form.

Assay [1] deals with ETA. To be noted: mouse model of endotoxic shock; cited from earlier work.
Assay [2] relates to ETA. To be noted: in vivo; cited from earlier work.
The next assay concerns ET receptor. To be noted: allergic sheep; cited from earlier work.
In a further assay the target is T1, recombinant human ETA R (Homo sapiens, UniProt P25101).
T1 construct: expressed in transfected cells; host or cells: Ltk- cells (membranes)
T1 sequence (P25101 21-427): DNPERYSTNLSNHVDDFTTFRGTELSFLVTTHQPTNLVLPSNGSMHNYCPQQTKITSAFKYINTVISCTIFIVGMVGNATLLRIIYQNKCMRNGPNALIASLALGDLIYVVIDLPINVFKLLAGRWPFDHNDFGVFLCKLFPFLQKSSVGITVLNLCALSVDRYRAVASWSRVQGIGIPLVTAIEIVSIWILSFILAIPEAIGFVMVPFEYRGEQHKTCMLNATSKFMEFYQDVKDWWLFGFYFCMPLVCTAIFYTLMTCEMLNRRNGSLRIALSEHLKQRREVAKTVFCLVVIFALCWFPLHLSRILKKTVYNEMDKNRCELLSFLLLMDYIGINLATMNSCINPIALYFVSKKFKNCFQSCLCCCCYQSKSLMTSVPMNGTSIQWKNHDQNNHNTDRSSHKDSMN
Briefly: [125I]-ET-1 radioligand binding, Ltk- cells expressing recombinant human ETA R (HERBA-A). The following applies: [125I]-ET-1 (40 pM), 2 hours at 37° C. Here is the method:
(§1) The compounds of Formula I are valuable antagonists of endothelin.
(§2) The following cultured cells were used in binding experiments: rabbit renal artery vascular smooth muscle cells (ERBA-A), Ltk-cells expressing recombinant human ETA R (HERBA-A), and CHO-K1 cells expressing recombinant human ETB R (HERBA-B).
(§3) Membranes were prepared from cultured cells by lysing cells in cold lysis buffer (5 mM HEPES, 2 mM EDTA, pH 7.4) and homogenizing with a Dounce "A" homogenizer. The homogenate was centrifuged at 30,000×g for 20 minutes at 4° C. Membrane pellets were suspended in cold buffer containing 20 mM Tris, 2 mM EDTA, 200 μM Pefabloc, 10 μM phosphoramidon, 10 μM leupeptin, 1 μM pepstatin at pH 7.4 and frozen at -80° C. until use. Membranes were thawed and homogenized with a Brinkmann Polytron then diluted in tissue buffer containing 20 mM Tris, 2 mM EDTA, 200 μM Pefabloc and 100 μM bacitracin (pH 7.4). Radioligand and competing ligands were prepared in binding buffer containing 20 mMTris, 2 mM EDTA, and 0.1% BSA.
(§4) Competing binding assays were initiatedby combining membranes, [125I]-ET-1 (40 pM) and the competing ligand in a final volume of 250 μL and incubating for 2 hours at 37° C. The assay was terminated by filtration over Whatman GF/B filters which were presoaked with 50 mM Tris, pH 7.4 containing 0.2% BSA and 100 μM bacitracin. Nonspecific binding was defined as binding in the presence of 100 nMET-1.

The next assay deals with T2, recombinant human ETB R (Homo sapiens, UniProt P24530).
T2 construct: expressed in transfected cells; host or cells: CHO-K1 cells (membranes)
T2 sequence (P24530 27-442): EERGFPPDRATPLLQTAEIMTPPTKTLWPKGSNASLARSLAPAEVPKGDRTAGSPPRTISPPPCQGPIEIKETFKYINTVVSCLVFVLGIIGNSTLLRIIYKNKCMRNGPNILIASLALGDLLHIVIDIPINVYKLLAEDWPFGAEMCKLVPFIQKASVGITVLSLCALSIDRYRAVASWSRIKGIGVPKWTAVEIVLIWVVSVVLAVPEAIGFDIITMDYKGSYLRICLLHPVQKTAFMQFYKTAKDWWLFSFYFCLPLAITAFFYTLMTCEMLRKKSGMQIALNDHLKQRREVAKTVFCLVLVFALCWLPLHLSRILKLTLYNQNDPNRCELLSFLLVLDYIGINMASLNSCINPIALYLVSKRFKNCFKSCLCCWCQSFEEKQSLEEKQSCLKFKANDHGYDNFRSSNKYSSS
Briefly: [125I]-ET-1 radioligand binding, CHO-K1 cells expressing recombinant human ETB R (HERBA-B). To be noted: [125I]-ET-1 (40 pM), 2 hours at 37° C.

The next assay has as its system rat cerebellum (ETB). The assay can be described thus: inhibition of ET-1 stimulated arachidonic acid release (AAR-B). The class given is cell-based. The following applies: ET-1 (0.3 nM) stimulated [3H]arachidonic acid release, 30 minutes.
From the text: as §1

Assay [3] deals with T3, rabbit renal artery vascular smooth muscle cells (ETA) (Oryctolagus cuniculus, UniProt A5A8K3).
T3 construct: endogenous in cells; host or cells: cultured rabbit renal artery vascular smooth muscle cells (membranes)
T3 sequence (A5A8K3 21-427): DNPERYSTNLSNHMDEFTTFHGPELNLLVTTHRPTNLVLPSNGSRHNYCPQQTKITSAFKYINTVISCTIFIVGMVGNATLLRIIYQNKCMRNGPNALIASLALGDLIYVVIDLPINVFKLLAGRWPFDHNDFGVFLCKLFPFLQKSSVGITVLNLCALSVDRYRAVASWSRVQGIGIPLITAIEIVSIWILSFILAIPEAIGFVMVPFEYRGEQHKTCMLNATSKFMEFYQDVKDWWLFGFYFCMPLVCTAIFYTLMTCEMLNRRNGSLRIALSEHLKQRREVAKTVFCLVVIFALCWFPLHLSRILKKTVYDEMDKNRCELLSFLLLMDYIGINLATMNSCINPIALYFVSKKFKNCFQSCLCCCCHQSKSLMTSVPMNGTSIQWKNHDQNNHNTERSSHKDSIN
The assay can be described thus: [125I]-ET-1 radioligand binding, rabbit renal artery vascular smooth muscle cells (ERBA-A). To be noted: [125I]-ET-1 (40 pM), 2 hours at 37° C. Here is the method: as §1, §2, §3, §4

The subject of the next assay is ETB. The following applies: isolated, endothelium-intact porcine pulmonary arteries; cited from earlier work.
Assay [4] deals with endothelin receptor. To be noted: rats; cited from earlier work.
In assay [5] the test system is endothelin receptor. To be noted: rats; cited from earlier work. This is another data set of the same source.
The next assay has as its system ETA /ETB receptor. To be noted: in vivo; cited from earlier work.

As to `CC(C)C[C@@H]1NC(=O)[C@@H](C(C)C)NC(=O)[C@@H]2CCCN2C(=O)[C@@H](CC(=O)O)NC(=O)[C@@H](Cc2c[nH]c3ccccc23)NC1=O` [BQ-123] (cyclo(L[dW][dD]P[dV])), in the assay on ETA [1], the survival rate result is given as “significantly increased”. For the same compound, the “early cerebral vasospasm following subarachnoid hemorrhage” value in the assay on ETA [2] was “prevent early cerebral vasospasm”. Also, the “ET-1 induced bronchoconstriction and tracheal smooth muscle contraction” value in the assay with ET receptor is listed as “block”.

Regarding `COc1cccc(CC(NC(=O)C(c2ccccc2)c2ccccc2)C(=O)O)c1OCCc1ccccc1` (racemic) [Example 4, (R,S)-2-Diphenylacetylamino-3-[3-methoxy-2-(2-phenyl-ethoxy)phenyl]propionic acid], the IC50 on recombinant human ETA R was found to be 3.4 µM; on recombinant human ETB R it was 1 µM; with rat cerebellum (ETB), 6.1 µM; in assay [3] it was 16 µM.

On to `COc1cccc(CC(NC(=O)N(c2ccccc2)c2ccccc2)C(=O)O)c1OCc1ccccc1` (racemic) [Example 5, (R,S)-3-(2Benzyloxy-3-methoxyphenyl)-2-(3,3-diphenyl-ureido) propionic acid], for which the IC50 on recombinant human ETB R came to 6.8 µM; in [3], 13 µM.

Consider ET[1,3,11,15-Ala], for which the vasorelaxation result in the assay on ETB is given as “caused vasorelaxation”.

Regarding `O=C(NC(C(=O)O)C(c1ccc2c(c1)OCO2)c1ccc2c(c1)OCO2)C(c1ccccc1)c1ccccc1` (centres unmarked) [Example 21, 3,3 -Bis-benzo[1,3]dioxol-5-yl-2-diphenylacetylamino-propionic acid], the IC50 at recombinant human ETA R was found to be 1.3 µM; at recombinant human ETB R, 2.5 µM.

With `COc1cccc(CC(NC(=O)C(Cc2cccc3ccccc23)Cc2cccc3ccccc23)C(=O)O)c1OCc1ccccc1` (racemic) [Example 9, (R,S)-3-(2-Benzyloxy-3-methoxyphenyl)-2-(3-naphthalen-1-yl-2-naphthalen-1-ylmethylpropionylamino)propionic acid], the results for the IC50 (on recombinant human ETB R; in [3]) were 2.2 µM and greater than 25 µM, respectively.

As to `COc1cccc(Oc2c(NS(=O)(=O)c3ccc(C(C)(C)C)cc3)ncnc2OCCO)c1` [RO 46-2005], in the assay on endothelin receptor [4], the “efficacy in model of subarachnoid hemorrhage” value was “effective”. In addition, the “efficacy in model of acute renal ischemia” value with endothelin receptor [5] is on record as “effective”.

As for `COc1cccc(CC(NC(=O)C(c2ccccc2)c2ccccc2)C(=O)O)c1Oc1ccc([N+](=O)[O-])cc1` (racemic) [Example 8, (R,S)-2-Diphenylacetylamino-3-[3-method-2-(4-nitro-phenol)phenyl]propionicacid], the IC50 was greater than 25 µM on recombinant human ETA R and 17 µM in assay [3].

Regarding `COc1ccc(C(c2ccc3c(c2)OCO3)C(NC(=O)C(c2ccccc2)c2ccccc2)C(=O)O)cc1OCc1ccccc1` (racemic) [Example 23, (R,S: R,S)-3-Benzo[1,3]dioxol-5-yl-3-(3-benzyloxy-4-methoxyphenyl)-2-diphenyl-acetylaminopropionic acid], the IC50 at recombinant human ETA R was 27 µM; at recombinant human ETB R it was 12 µM.

As to `COc1cccc(SC(c2cccc(OC)c2)C(NC(=O)C(c2ccccc2)c2ccccc2)C(=O)O)c1` (racemic) [Example 35, (R,S; R,S)-2-Diphenylacetylamino-3-(3-methoxyphenyl)-3-(3-methoxyphenyl-sulfanyl)propionic acid], the IC50 on recombinant human ETA R is 1.8 µM; on recombinant human ETB R it was 3 µM.

As for `O=C(NC(C(=O)O)C(c1ccc2c(c1)OCO2)c1ccc2c(c1)OCO2)c1ccc2c(c1)OCO2` (racemic) [Example 38, (R,S)-2-[(Benzo[1,3]dioxole-5-carbonyl)-amino]-3,3-bis-benzo [1,3]dioxol-5-yl-propionic acid], the IC50 at recombinant human ETA R was 1.3 µM; at recombinant human ETB R, 13 µM.

For the compound `COc1cccc(CC(NCC(c2ccccc2)c2ccccc2)C(=O)O)c1OCc1ccccc1` (racemic) [Example 16, (R,S)-3-(2-Benzyloxy-3-methoxyphenyl)-2-(2,2-diphenyl-ethylamino)propionic acid], the IC50 turned out to be 9.7 µM on recombinant human ETB R and 7.1 µM in [3].

For the compound `CC(C)c1ccc(S(=O)(=O)NC(C(=O)O)C(c2ccc3c(c2)OCO3)c2ccc3c(c2)OCO3)cc1` (racemic) [Example 40, (R,S)-3,3-Bis-benzo[1,3]dioxol-5-yl-2-(4-isopropyl-benzenesulfonylamino)-propionic acid], the IC50 on recombinant human ETA R stood at 4 µM; at recombinant human ETB R, 16 µM.

For the compound `O=C(O)C(Cc1ccccc1OCc1ccccc1)NC(=O)C(c1ccccc1)c1ccccc1` (racemic) [Example 14, (R,S)-3-(2-Benzyloxyphenyl)-2-diphenylacetylamino-propionic acid], the IC50 is 23 µM at recombinant human ETB R and greater than 25 µM in assay [3].

Take `COc1cccc(CC(NC(=O)C(c2ccccc2)c2ccccc2)C(=O)O)c1OCc1ccccc1` (racemic) [Example 3, (R,S)-N-(Diphenylacetyl)-3-methoxy-2-(phenylmethoxy)-phenylalanine]: the values for the IC50 on recombinant human ETA R, on recombinant human ETB R and in the assay with rat cerebellum (ETB) were 3.4 µM, 2 µM and 10 µM, respectively.

For `COc1cccc(CC(NC(=O)C(c2ccccc2)c2ccccc2)C(=O)O)c1OCCCc1ccccc1` (racemic) [Example 7, (R,S)-Diphenylacetylamino-3-[3-methoxy-2-(3-phenyl-propoxy)phenyl]propionicacid], the IC50 on recombinant human ETA R stood at 9.3 µM; on recombinant human ETB R, 9.4 µM.

As for `CCCOc1ccc2c(c1)[C@@H](c1ccc(OC)cc1OCC(=O)O)[C@H](C(=O)O)[C@H]2c1ccc2c(c1)OCO2` [SB 209670], the “neointimal formation after angioplasty” value in the assay with ETA /ETB receptor was “reduced neointimal formation”.

In the case of `COc1cccc(CC(NC(=O)C(c2ccccc2)C2CCCC2)C(=O)O)c1OCc1ccccc1` (racemic) [Example 10, (R,S; R,S)-3-(2-Benzyloxy-3-methoxyphenyl)-2-(2-cyclopentyl-2-phenyl-acetylamino)propionic acid], the values for the IC50 (at recombinant human ETB R; in assay [3]) were 2.2 µM and 23 µM, respectively.
